# Reference: patent US7368287B2, “Use of L-α-lysophosphatidylcholine to obtain the differentiation of monocytes into mature dendritic cells in vitro” (Biomerieux, priority 2002, dated 2008)
# Legend:
# [1] = system: NF-κB; details: high concentration of LPC (50 μM); cited from earlier work
# [2] = system: PPARδ; assay: PPAR binding activity by gel shift on nuclear proteins of treated monocytes; type: cell-based, human
# Experimental: Next, the inventors investigated the transcription factors involved in the maturation process induced by LPC. In order to determine whether PPARs are involved in the LPC-induced maturation, the ability of the two transcription factors PPARγ and PPARδ to bind was analyzed using the gel shift technique. 3 isotypes of PPAR nuclear receptors (peroxisome proliferator-activated receptor) exist: α, γ and δ. PPARγs are the targets for molecules of the thiazolidinedione class, such as ciglitizone, used in the treatment of type II diabetes. PPARδs have a broader expression and can be repressors of PPARγs. The monocytes undergoing differentiation were incubated for two hours with a solution of LPC (40 μM) (“LPC” cells). “Control” cells are also obtained in the absence of LPC in the culture medium. After having harvested the cells, the nuclear proteins were extracted with the Nuclear extract Kit (Sigma). The nuclear proteins were then brought into contact with a ratioactively labeled probe containing a response element recognized by PPARs. […] The PPAR binding activity was determined by measuring the intensity of these bands. These activities are expressed as a percentage with respect to the “control” cells. […]
# The activity of the PPARγ and PPARδ transcription factors was measured in these cells by the gel shift technique, as described above.
# INTRALIPID® regulates PPARs in vitro. […] The cells were harvested after 1 h, 2 h or 8 h of incubation with INTRALIPID®, the nuclear proteins were extracted and the activity of PPARγ and PPARδ was determined as described in example 6.
# Secondly, a solution of INTRALIPID® (50 μg/ml of phospholipids) was added to the culture medium on the 5th day of monocyte differentiation, 15 minutes before the addition of a solution of LPC (40 μM) (“LPC+Intralipid” cells). […] The cells were harvested after 2 h of incubation, the nuclear proteins were extracted and the activity of PPARγ and PPARδ was determined as described in example 6.
# [3] = system: Gi protein-coupled receptors; assay: Induction of CD86 by LPC after preincubation with pertussis toxin; type: cell-based, human; details: LPC cells = 100%; PTX 100 ng/ml for 3 hours before LPC
# Experimental: (§1) The phenotype of the “control” and “LPC” cells is analyzed by flow cytometry on a FACSCalibur (Becton Dickinson, Francklin Lakes, N.J., USA) using FITC (fluorosceine isothiocyanate)-conjugated anti-CD14, anti-HLA-DR and anti-CD80 and PE (phycoerythrin)-conjugated anti-CD1a, anti-CD83, anti-CD86 and anti-CD40 (Beckman Coulter). According to the state of the art, monocytes preferentially have a CD14+ CD1a− phenotype, immature dendritic cells preferentially have a CD14− CD1a+CD86− phenotype, and mature dendritic cells preferentially have a CD14− CD1a intermediate—CD86+ phenotype.
# Initially, in order to determine whether the receptors involved in the action of LPC in the differentiation of monocytes into mature dendritic cells belonged to the family of G protein-coupled receptors, PTX (pertussis toxin; 100 ng/ml), known to block Gi proteins, was added to the culture medium for 3 hours. The culture medium was then changed and the LPC was added as described in example 1.
# [4] = system: BALB/c mice; assay: HEL-specific IgG in serum by ELISA after immunization; type: in vivo, mouse; details: LPC 350 nmol co-injected with HEL, booster after 15 days; FIG. 1
# Experimental: LPC stimulates the production of specific antibodies against a co-injected soluble antigen. LPC dissolved in PBS (350 nmol in 50 μl) is mixed with hen egg lysozyme (HEL, 1 mg/ml) and this mixture is injected into the plantar foot pad of BALB/c mice. The “HEL+LPC” batch of mice receives 50 μl of this mixture in the foot pads of the two hind feet. The “HEL” batch of mice receives 50 μl of HEL solution (1 mg/ml in PBS) in the two feet. After 15 days, a booster injection is given subcutaneously on the 2 flanks. The “HEL+LPC” batch receives, on each flank, 100 μl of a solution of LPC (5 mM) and of HEL (1 mg/ml) in PBS. The “HEL” batch receives, on each flank, 100 μl of a solution of HEL (1 mg/ml) in PBS. Two weeks later, blood is taken from the mice and the IgGs specific for the HEL antigen are assayed by ELISA with respect to a standard IgG solution range. The titration curves giving the absorbance (Abs) as a function of the logarithm of the serum dilution are represented in FIG. 1.
# [5] = system: PAF receptor; assay: CD86 expression in presence of PAF or of the PAF antagonist BN52021; type: cell-based, human
# Experimental: as §1
# Thus, a solution of PAF (Sigma, 5 μM) was added to the culture medium on the 5th day of monocyte differentiation. The expression of CD86 by the “control” cells and by the “LPC” cells, obtained in the presence or in the absence of PAF, was analyzed according to the protocol described in example 2, and the results are given in table 9.
# Thus, a solution of the PAF antagonist BN52021 (Biomol, Plymouth Meeting, USA, 100 μM) was added to the culture medium on the 5th day of monocyte differentiation. The expression of CD86 by the “control” and “LPC” cells, obtained in the presence or in the absence of BN52021, was analyzed according to the protocol described in example 2, and the results are given in table 10.
substance,measurement,setting,value
L-α-lysophosphatidylcholine [LPC],Activity of the transcription factor NF-κB,[1],inhibits
same,PPARδ binding activity,"[2]; Table 6, LPC 40 μM, two hours, percentage with respect to control cells",263%
same,PPARδ activity,"[2]; Table 16, Intralipid 50 μg/ml phospholipids 15 minutes before LPC 40 μM, 2 h, control = 100%",160%
same,Induction of CD86,[3],100%
same,Production of IgGs specific for the HEL antigen,[4],induces the synthesis of antibodies specific for the antigen
same,Expression of CD86,"[5]; LPC cells = 100%, BN52021 100 μM added on 5th day",100%
same,Expression of the CD86 marker (mean fluorescence intensity),[5]; PAF 5 μM and/or LPC added on 5th day,287.11
same,Increase in the expression of CD86,"[5]; versus control cells, PAF 5 μM and/or LPC",470%
